Several values for one entry are separate records, joined by “and”; a condition that tells them apart may be missing. Equal values may be shown once. Inconclusive results and toxic doses are left out. Square brackets hold non-standard residues; d marks the D form. Peptide text beside a SMILES is read from it. ξ: configuration not given here. ξT = CC(O)C(N)C(=O)O
Tested on: P388 leukemia ip, CD2F1 mice, survival T/C
Assay: NCI In Vivo Anticancer Drug Screen. Data for tumor model P388 Leukemia (intraperitoneal) in CD2F1 (CDF1) mice
Settings: endpoint: median survival time, higher = longer survival
Procedure, shortened: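 Mice carrying the transplanted tumor received test compound or vehicle. Survival was recorded in each group, and the value is the treated-group measurement divided by that of the vehicle-treated control group.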

[1] = dose: 400.0 mg/kg/injection, schedule: Q04DX003 (ip), vehicle: saline with Tween-80
[2] = dose: 12.5 mg/kg/injection, schedule: Q01DX009 (ip), vehicle: saline
[3] = dose: 50.0 mg/kg/injection, schedule: Q01DX005 (ip), vehicle: saline with Tween-80
[4] = dose: 100.0 mg/kg/injection, schedule: Q01DX005 (ip), vehicle: saline with Tween-80
[5] = dose: 200.0 mg/kg/injection, schedule: Q01DX005 (ip), vehicle: saline with Tween-80
[6] = dose: 100.0 mg/kg/injection, schedule: Q01DX009 (ip), vehicle: saline with Tween-80
[7] = dose: 200.0 mg/kg/injection, schedule: Q01DX009 (ip), vehicle: saline with Tween-80
[8] = dose: 50.0 mg/kg/injection, schedule: Q01DX009 (ip), vehicle: Klucel (hydroxypropylcellulose) (HPC)
[9] = dose: 100.0 mg/kg/injection, schedule: Q01DX009 (ip), vehicle: Klucel (hydroxypropylcellulose) (HPC)
[10] = dose: 200.0 mg/kg/injection, schedule: Q01DX009 (ip), vehicle: Klucel (hydroxypropylcellulose) (HPC)

S=c1cc(-c2ccccc2)ss1
T/C (dose: 178.0 mg/kg/injection, schedule: Q04DX003 (ip), vehicle: saline with Tween-80): 102 % of control
T/C (dose: 266.0 mg/kg/injection, schedule: Q04DX003 (ip), vehicle: saline with Tween-80): 102 % of control
T/C [1]: 101 % of control
T/C (dose: 600.0 mg/kg/injection, schedule: Q04DX003 (ip), vehicle: saline with Tween-80): 102 % of control

CC(C)(Br)C(=O)/C=C/c1ccccc1
T/C (dose: 60.0 mg/kg/injection, schedule: Q01DX005 (ip), vehicle: saline with Tween-80): 105 % of control
T/C (dose: 120.0 mg/kg/injection, schedule: Q01DX005 (ip), vehicle: saline with Tween-80): 115 % of control

CCC12C=CCN3CCC4(c5cc(C6c7[nH]c8ccccc8c7CCN7CCCCC67)c(OC)cc5N(C)C4C(O)(C(=O)OC)C1OC(C)=O)C32 (stereo unspecified)
T/C (dose: 0.06 mg/kg/injection, schedule: Q01DX009 (ip), vehicle: Klucel (hydroxypropylcellulose) (HPC)): 115 % of control
T/C (dose: 0.13 mg/kg/injection, schedule: Q01DX009 (ip), vehicle: Klucel (hydroxypropylcellulose) (HPC)): 122 % of control
T/C (dose: 0.13 mg/kg/injection, schedule: Q04DX003 (ip), vehicle: water): 95 % of control
T/C (dose: 0.25 mg/kg/injection, schedule: Q01DX009 (ip), vehicle: Klucel (hydroxypropylcellulose) (HPC)): 123 % of control
T/C (dose: 0.25 mg/kg/injection, schedule: Q04DX003 (ip), vehicle: water): 112 % of control
T/C (dose: 0.5 mg/kg/injection, schedule: Q04DX003 (ip), vehicle: water): 113 % of control
T/C (dose: 0.67 mg/kg/injection, schedule: Q01DX009 (ip), vehicle: Klucel (hydroxypropylcellulose) (HPC)): 103 % of control
T/C (dose: 1.0 mg/kg/injection, schedule: Q04DX003 (ip), vehicle: water): 103 % of control
T/C (dose: 1.5 mg/kg/injection, schedule: Q01DX009 (ip), vehicle: Klucel (hydroxypropylcellulose) (HPC)): 105 % of control
T/C (dose: 2.0 mg/kg/injection, schedule: Q04DX003 (ip), vehicle: water): 91 % of control

C=C1C(=O)O[C@@H]2/C=C(/C)[C@@]3(O)C=C[C@](C)(C[C@@H](OC(=O)/C(=C\C)COC(C)=O)[C@@H]12)O3
T/C (dose: 2.5 mg/kg/injection, schedule: Q01DX009 (ip), vehicle: carboxymethylcellulose (CMC)): 106 % of control
T/C (dose: 5.0 mg/kg/injection, schedule: Q01DX009 (ip), vehicle: carboxymethylcellulose (CMC)): 120 % of control
T/C (dose: 10.0 mg/kg/injection, schedule: Q01DX009 (ip), vehicle: carboxymethylcellulose (CMC)): 101 % of control
T/C (dose: 20.0 mg/kg/injection, schedule: Q01DX009 (ip), vehicle: carboxymethylcellulose (CMC)): 120 % of control

CC1(c2cccc[n+]2Cc2ccc(Cl)c3ccccc23)OCCO1
T/C [2]: 101 % of control
T/C (dose: 25.0 mg/kg/injection, schedule: Q01DX009 (ip), vehicle: saline): 101 % of control

O=C1C2C3C=CC(O3)C2C(=O)N1/N=C\C(O)C(O)C(O)C(O)CO (stereo unspecified)
T/C [3]: 97 % of control
T/C [4]: 98 % of control
T/C [5]: 95 % of control

Oc1ccc(O)c2nc3ccccc3nc12
T/C (dose: 1.56 mg/kg/injection, schedule: Q01DX009 (ip), vehicle: distilled water + Tween-80): 104 % of control
T/C (dose: 3.12 mg/kg/injection, schedule: Q01DX009 (ip), vehicle: distilled water + Tween-80): 105 % of control
T/C (dose: 6.25 mg/kg/injection, schedule: Q01DX009 (ip), vehicle: distilled water + Tween-80): 104 % of control and 97 % of control

CCCCCCN(CCCCCC)c1nc(Cl)nc(NCC)n1
T/C [3]: 111 % of control
T/C [4]: 103 % of control
T/C [5]: 103 % of control

Nc1nc(SCc2ccccc2[N+](=O)[O-])c2[nH]cnc2n1
T/C [6]: 104 % of control
T/C (dose: 100.0 mg/kg/injection, schedule: Q04DX003 (ip), vehicle: saline with Tween-80): 100 % of control
T/C [7]: 95 % of control
T/C (dose: 200.0 mg/kg/injection, schedule: Q04DX003 (ip), vehicle: saline with Tween-80): 100 % of control
T/C (dose: 400.0 mg/kg/injection, schedule: Q01DX009 (ip), vehicle: saline with Tween-80): 90 % of control
T/C [1]: 91 % of control

COC(=O)C1=C/C=C\CN(CCC2OCCO2)/C=C\1C(=O)OC
T/C (dose: 100.0 mg/kg/injection, schedule: Q01DX001 (ip), vehicle: alcohol): 99 % of control
T/C (dose: 200.0 mg/kg/injection, schedule: Q01DX001 (ip), vehicle: alcohol): 100 % of control
T/C (dose: 400.0 mg/kg/injection, schedule: Q01DX001 (ip), vehicle: alcohol): 100 % of control

CCOC(=O)C(NC(C)=O)(C(=O)OCC)C1CCCC1=O (stereo unspecified)
T/C (dose: 60.0 mg/kg/injection, schedule: Q01DX005 (ip), vehicle: saline): 94 % of control
T/C (dose: 120.0 mg/kg/injection, schedule: Q01DX005 (ip), vehicle: saline): 96 % of control
T/C (dose: 240.0 mg/kg/injection, schedule: Q01DX005 (ip), vehicle: saline): 100 % of control

CCOC([O-])=N/C(=N/[n+]1ccccc1)c1ccccc1
T/C [8]: 107 % of control
T/C [9]: 96 % of control
T/C [10]: 100 % of control

CC(O)C(N)C(=O)NCC(=O)NCC(=O)O (stereo not drawn) (H-[ξT]-Gly-Gly-OH)
T/C (dose: 50.0 mg/kg/injection, schedule: Q01DX005 (ip), vehicle: saline): 101 % of control
T/C (dose: 100.0 mg/kg/injection, schedule: Q01DX005 (ip), vehicle: saline): 101 % of control
T/C (dose: 200.0 mg/kg/injection, schedule: Q01DX005 (ip), vehicle: saline): 104 % of control

CC1(C)NNC(=S)NC1=O
T/C [8]: 99 % of control
T/C (dose: 50.0 mg/kg/injection, schedule: Q01DX009 (ip), vehicle: saline with Tween-80): 100 % of control
T/C [9]: 97 % of control
T/C [6]: 113 % of control
T/C [10]: 94 % of control
T/C [7]: 97 % of control

O=[N+]([O-])c1ccccc1-c1ccccc1N=Cc1ccccc1
T/C (dose: 6.25 mg/kg/injection, schedule: Q01DX009 (ip), vehicle: saline with Tween-80): 96 % of control
T/C (dose: 12.5 mg/kg/injection, schedule: Q01DX009 (ip), vehicle: saline with Tween-80): 106 % of control
T/C (dose: 25.0 mg/kg/injection, schedule: Q01DX009 (ip), vehicle: saline with Tween-80): 86 % of control

CSc1nc(COC(=O)NC(C)C)c(COC(=O)NC(C)C)n1C
T/C (dose: 12.5 mg/kg/injection, schedule: Q01DX005 (ip), vehicle: Klucel + Tween-80): 113 % of control
T/C (dose: 25.0 mg/kg/injection, schedule: Q01DX005 (ip), vehicle: Klucel + Tween-80): 116 % of control
T/C (dose: 100.0 mg/kg/injection, schedule: Q01DX005 (ip), vehicle: Klucel + Tween-80): 156 % of control and 163 % of control
T/C (dose: 200.0 mg/kg/injection, schedule: Q01DX005 (ip), vehicle: Klucel + Tween-80): 184 % of control

CSC(=S)N/N=C/c1nccc2ccccc12
T/C (dose: 100.0 mg/kg/injection, schedule: Q01DX001 (ip), vehicle: saline with Tween-80): 112 % of control
T/C (dose: 200.0 mg/kg/injection, schedule: Q01DX001 (ip), vehicle: saline with Tween-80): 108 % of control
T/C (dose: 400.0 mg/kg/injection, schedule: Q01DX001 (ip), vehicle: saline with Tween-80): 116 % of control

c1ccc(-c2cc(-c3cc(-c4ccccn4)[nH]n3)n[nH]2)nc1
T/C (dose: 60.0 mg/kg/injection, schedule: Q01DX005 (ip), vehicle: saline + Tween-80 + alcohol): 91 % of control
T/C (dose: 120.0 mg/kg/injection, schedule: Q01DX005 (ip), vehicle: saline + Tween-80 + alcohol): 94 % of control
T/C (dose: 240.0 mg/kg/injection, schedule: Q01DX005 (ip), vehicle: saline + Tween-80 + alcohol): 104 % of control

Cc1ccccc1NC(=O)Cc1ccccc1
T/C (dose: 6.25 mg/kg/injection, schedule: Q01DX009 (ip), vehicle: Klucel (hydroxypropylcellulose) (HPC)): 99 % of control
T/C (dose: 12.5 mg/kg/injection, schedule: Q01DX009 (ip), vehicle: Klucel (hydroxypropylcellulose) (HPC)): 104 % of control
T/C (dose: 25.0 mg/kg/injection, schedule: Q01DX009 (ip), vehicle: Klucel (hydroxypropylcellulose) (HPC)): 94 % of control
T/C [8]: 108 % of control
T/C [9]: 95 % of control

CC(=O)c1ccc2c(c1)N(CCCN(C)C)c1ccccc1S2
T/C (dose: 3.12 mg/kg/injection, schedule: Q01DX009 (ip), vehicle: saline): 94 % of control and 97 % of control
T/C (dose: 6.25 mg/kg/injection, schedule: Q01DX009 (ip), vehicle: saline): 93 % of control and 94 % of control
T/C [2]: 103 % of control and 93 % of control
T/C (dose: 50.0 mg/kg/injection, schedule: Q01DX009 (ip), vehicle: saline): 101 % of control
T/C (dose: 100.0 mg/kg/injection, schedule: Q01DX009 (ip), vehicle: saline): 116 % of control

c1ccc2c(-c3nc4ccccc4c4ccccc34)cccc2c1
T/C [3]: 108 % of control
T/C [4]: 108 % of control
T/C [5]: 95 % of control
